Experimental data reported in PubChem BioAssay AID250 (DTP/NCI, 2004).
“And” between values parts separate entries of the source, which are not always exact repeats. Equal entries are not always repeated. Toxic doses and inconclusive results are not listed.

Tested on: BDF1 mice, L1210 leukemia sc, survival T/C
Experiment: NCI In Vivo Anticancer Drug Screen. Data for tumor model L1210 Leukemia (subcutaneous) in B6D2F1 (BDF1) mice
Conditions: endpoint: median survival time, higher = longer survival
Outline: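 Read-out: T/C ratio, i.e. survival or tumor size in treated mice over that in vehicle-treated controls, from mice bearing transplantable tumors.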

[1] = dose: 1.08 mg/kg/injection, schedule: Q01DX Z (sc), vehicle: saline
[2] = dose: 1.8 mg/kg/injection, schedule: Q01DX Z (sc), vehicle: saline
[3] = dose: 1.8 mg/kg/injection, schedule: Q02DX Z (sc), vehicle: saline
[4] = dose: 3.0 mg/kg/injection, schedule: Q01DX Z (sc), vehicle: saline
[5] = dose: 3.0 mg/kg/injection, schedule: Q02DX Z (sc), vehicle: saline
[6] = dose: 5.0 mg/kg/injection, schedule: Q01DX Z (sc), vehicle: saline
[7] = dose: 5.0 mg/kg/injection, schedule: Q02DX Z (sc), vehicle: saline
[8] = dose: 5.0 mg/kg/injection, schedule: Q## X Z (sc), vehicle: saline
[9] = dose: 8.4 mg/kg/injection, schedule: Q01DX001 (sc), vehicle: saline
[10] = dose: 8.4 mg/kg/injection, schedule: Q## X Z (sc), vehicle: saline
[11] = dose: 14.0 mg/kg/injection, schedule: Q01DX Z (sc), vehicle: saline
[12] = dose: 14.0 mg/kg/injection, schedule: Q02DX Z (sc), vehicle: saline
[13] = dose: 23.0 mg/kg/injection, schedule: Q01DX001 (sc), vehicle: saline
[14] = dose: 23.0 mg/kg/injection, schedule: Q01DX Z (sc), vehicle: saline
[15] = dose: 23.0 mg/kg/injection, schedule: Q02DX Z (sc), vehicle: saline
[16] = dose: 23.0 mg/kg/injection, schedule: Q## X Z (sc), vehicle: saline
[17] = dose: 39.0 mg/kg/injection, schedule: Q01DX001 (sc), vehicle: saline
[18] = dose: 39.0 mg/kg/injection, schedule: Q## X Z (sc), vehicle: saline
[19] = dose: 65.0 mg/kg/injection, schedule: Q01DX001 (sc), vehicle: saline
[20] = dose: 8.4 mg/kg/injection, schedule: Q01DX Z (sc), vehicle: saline
[21] = dose: 108.0 mg/kg/injection, schedule: Q01DX Z (sc), vehicle: methylcellulose (MC)
[22] = dose: 500.0 mg/kg/injection, schedule: Q01DX Z (sc), vehicle: methylcellulose (MC)
[23] = dose: 833.0 mg/kg/injection, schedule: Q01DX Z (sc), vehicle: methylcellulose (MC)

## C=CC(CO)N1CC1 (centres undefined)
[1]
  T/C: 100 % of control
[2]
  T/C: 100 % of control
[3]
  T/C: 100 % of control
[4]
  T/C: 100 % of control
[5]
  T/C: 105 % of control
[6]
  T/C: 90 % of control and 100 % of control
[7]
  T/C: 100 % of control
[8]
  T/C: 100 % of control
dose: 7.8 mg/kg/injection, schedule: Q01DX Z (sc), vehicle: saline
  T/C: 100 % of control
[9]
  T/C: 100 % of control
dose: 8.4 mg/kg/injection, schedule: Q02DX Z (sc), vehicle: saline
  T/C: 100 % of control
[10]
  T/C: 100 % of control
dose: 14.0 mg/kg/injection, schedule: Q01DX001 (sc), vehicle: saline
  T/C: 100 % of control
[11]
  T/C: 100 % of control
[12]
  T/C: 100 % of control
dose: 14.0 mg/kg/injection, schedule: Q## X Z (sc), vehicle: saline
  T/C: 100 % of control
[13]
  T/C: 100 % of control
[14]
  T/C: 90 % of control and 110 % of control
[15]
  T/C: 100 % of control
[16]
  T/C: 100 % of control
dose: 36.0 mg/kg/injection, schedule: Q01DX Z (sc), vehicle: saline
  T/C: 105 % of control
dose: 37.0 mg/kg/injection, schedule: Q02DX Z (sc), vehicle: saline
  T/C: 100 % of control
[17]
  T/C: 110 % of control
dose: 39.0 mg/kg/injection, schedule: Q01DX Z (sc), vehicle: saline
  T/C: 95 % of control and 100 % of control
[18]
  T/C: 100 % of control
[19]
  T/C: 120 % of control
dose: 65.0 mg/kg/injection, schedule: Q02DX Z (sc), vehicle: saline
  T/C: 100 % of control
dose: 65.0 mg/kg/injection, schedule: Q## X Z (sc), vehicle: saline
  T/C: 120 % of control
dose: 108.0 mg/kg/injection, schedule: Q01DX001 (sc), vehicle: saline
  T/C: 115 % of control
dose: 108.0 mg/kg/injection, schedule: Q## X Z (sc), vehicle: saline
  T/C: 115 % of control

## S=P(N1CC1)(N1CC1)N1CC1
[1]
  T/C: 110 % of control
dose: 1.5 mg/kg/injection, schedule: Q01DX009 (ip), vehicle: water
  T/C: 113 % of control
dose: 1.5 mg/kg/injection, schedule: Q01DX009 (sc), vehicle: water
  T/C: 105 % of control
[2]
  T/C: 100 % of control and 110 % of control
[4]
  T/C: 112 % of control
[6]
  T/C: 156 % of control
dose: 6.0 mg/kg/injection, schedule: Q01DX009 (ip), vehicle: water
  T/C: 94 % of control
dose: 6.0 mg/kg/injection, schedule: Q01DX009 (sc), vehicle: water
  T/C: 169 % of control
[20]
  T/C: 170 % of control
dose: 12.0 mg/kg/injection, schedule: Q01DX009 (sc), vehicle: water
  T/C: 86 % of control
[11]
  T/C: 120 % of control
[14]
  T/C: 104 % of control and 120 % of control

## OCC1OC(n2cnc3c(Cl)ncnc32)C(O)C1O (centres undefined)
dose: 39.0 mg/kg/injection, schedule: Q01DX Z (sc), vehicle: methylcellulose (MC)
  T/C: 100 % of control
dose: 65.0 mg/kg/injection, schedule: Q01DX Z (sc), vehicle: methylcellulose (MC)
  T/C: 100 % of control
[21]
  T/C: 100 % of control
dose: 180.0 mg/kg/injection, schedule: Q01DX Z (sc), vehicle: methylcellulose (MC)
  T/C: 100 % of control
dose: 300.0 mg/kg/injection, schedule: Q01DX Z (sc), vehicle: methylcellulose (MC)
  T/C: 95 % of control and 100 % of control
[22]
  T/C: 94 % of control and 105 % of control
[23]
  T/C: 105 % of control

## CCC(C)SC1=NC=NC2=NC=NC21 (centres undefined)
dose: 38.9 mg/kg/injection, schedule: Q01DX Z (sc), vehicle: methylcellulose (MC)
  T/C: 109 % of control
[21]
  T/C: 150 % of control
[22]
  T/C: 100 % of control
[23]
  T/C: 100 % of control

## S=c1nc[nH]c2c1ncn2C1C=CCCC1 (centres undefined)
dose: 14.0 mg/kg/injection, schedule: Q01DX Z (sc), vehicle: methylcellulose (MC)
  T/C: 100 % of control
dose: 23.4 mg/kg/injection, schedule: Q01DX Z (sc), vehicle: methylcellulose (MC)
  T/C: 100 % of control
[21]
  T/C: 100 % of control

## CO[C@@]12[C@H](COC(N)=O)C3=C(C(=O)C(C)=C(N)C3=O)N1C[C@@H]1N[C@@H]12
dose: 0.1 mg/kg/injection, schedule: Q01DX Z (sc), vehicle: saline
  T/C: 95 % of control
dose: 0.17 mg/kg/injection, schedule: Q01DX Z (sc), vehicle: saline
  T/C: 100 % of control
dose: 0.28 mg/kg/injection, schedule: Q01DX Z (sc), vehicle: saline
  T/C: 100 % of control
dose: 0.47 mg/kg/injection, schedule: Q01DX Z (sc), vehicle: saline
  T/C: 91 % of control
dose: 0.79 mg/kg/injection, schedule: Q01DX Z (sc), vehicle: saline
  T/C: 100 % of control
dose: 1.0 mg/kg/injection, schedule: Q01DX009 (ip), vehicle: water
  T/C: 110 % of control
dose: 1.0 mg/kg/injection, schedule: Q01DX009 (sc), vehicle: water
  T/C: 101 % of control
[1]
  T/C: 100 % of control
dose: 1.3 mg/kg/injection, schedule: Q01DX Z (sc), vehicle: other
  T/C: 104 % of control
dose: 1.3 mg/kg/injection, schedule: Q01DX Z (sc), vehicle: saline
  T/C: 104 % of control
dose: 1.31 mg/kg/injection, schedule: Q01DX Z (sc), vehicle: saline
  T/C: 95 % of control
[2]
  T/C: 100 % of control
[3]
  T/C: 100 % of control
dose: 2.0 mg/kg/injection, schedule: Q01DX009 (ip), vehicle: water
  T/C: 110 % of control
dose: 2.0 mg/kg/injection, schedule: Q01DX009 (sc), vehicle: water
  T/C: 110 % of control and 118 % of control
dose: 2.16 mg/kg/injection, schedule: Q01DX Z (sc), vehicle: other
  T/C: 100 % of control
dose: 2.16 mg/kg/injection, schedule: Q01DX Z (sc), vehicle: saline
  T/C: 109 % of control
dose: 2.18 mg/kg/injection, schedule: Q01DX Z (sc), vehicle: saline
  T/C: 100 % of control
[4]
  T/C: 109 % of control
[5]
  T/C: 109 % of control
dose: 3.0 mg/kg/injection, schedule: Q## X Z (sc), vehicle: saline
  T/C: 104 % of control
dose: 3.6 mg/kg/injection, schedule: Q01DX Z (sc), vehicle: other
  T/C: 109 % of control
dose: 3.6 mg/kg/injection, schedule: Q01DX Z (sc), vehicle: saline
  T/C: 113 % of control
dose: 4.0 mg/kg/injection, schedule: Q01DX009 (ip), vehicle: water
  T/C: 92 % of control
dose: 4.0 mg/kg/injection, schedule: Q01DX009 (sc), vehicle: water
  T/C: 98 % of control and 121 % of control
dose: 5.0 mg/kg/injection, schedule: Q01DX001 (sc), vehicle: saline
  T/C: 109 % of control
[7]
  T/C: 118 % of control
[8]
  T/C: 109 % of control
dose: 6.0 mg/kg/injection, schedule: Q01DX Z (sc), vehicle: other
  T/C: 113 % of control
dose: 6.0 mg/kg/injection, schedule: Q01DX Z (sc), vehicle: saline
  T/C: 118 % of control
dose: 6.06 mg/kg/injection, schedule: Q01DX Z (sc), vehicle: saline
  T/C: 116 % of control
dose: 8.0 mg/kg/injection, schedule: Q01DX009 (sc), vehicle: water
  T/C: 108 % of control
[9]
  T/C: 113 % of control
[20]
  T/C: 118 % of control
[10]
  T/C: 122 % of control
dose: 10.0 mg/kg/injection, schedule: Q01DX Z (sc), vehicle: other
  T/C: 109 % of control
dose: 10.0 mg/kg/injection, schedule: Q01DX Z (sc), vehicle: saline
  T/C: 100 % of control
[11]
  T/C: 109 % of control
[12]
  T/C: 118 % of control
dose: 16.0 mg/kg/injection, schedule: Q01DX009 (sc), vehicle: water
  T/C: 97 % of control
[13]
  T/C: 118 % of control
[14]
  T/C: 109 % of control
[15]
  T/C: 118 % of control
[16]
  T/C: 118 % of control
[17]
  T/C: 118 % of control
dose: 39.0 mg/kg/injection, schedule: Q02DX Z (sc), vehicle: saline
  T/C: 122 % of control
[18]
  T/C: 118 % of control
[19]
  T/C: 109 % of control
